We go through ten compounds from ChEMBL document CHEMBL1137042, “Synthesis and cytotoxic activity of novel derivatives of 4'-demethylepipodophyllotoxin” (Bioorg Med Chem Lett, 2004).

One assay relates to A549. Nature of the assay: In vitro inhibitory concentration required against human lung carcinoma A-549 cell line was determined after 72 hrs of drug exposure using SRB method. It counts as functional, cell-based. Particulars: A549, 72 h. Background: In SRB staining, fixed cells bind dye roughly in proportion to their protein.
For another assay, the system named is HL-60. Nature of the assay: In vitro inhibitory concentration required against human leukemic HL-60 cell line was determined after 48 hrs of drug exposure using MTT method. Particulars: HL-60, 48 h. It counts as functional, cell-based. On the technique in general: Tetrazolium assays rely on reduction of a dye to a coloured formazan, in cell work by metabolically active cells.

A value given as a limit tells only on which side of the number the result lay.

By IC50 is commonly meant the point on the concentration scale where inhibition reaches its midpoint. A high value points to weaker potency. Consider `COc1cc([C@@H]2c3cc4c(cc3[C@@H](NC(CSC)C(=O)OCCCCCn3cc(F)c(=O)[nH]c3=O)[C@H]3COC(=O)[C@H]23)OCO4)cc(OC)c1O` (stereo not given in full), for which the results for the IC50 with A549 and in the assay with HL-60 were 230 nM and 40 nM, respectively.
For `COc1cc([C@@H]2c3cc4c(cc3[C@@H](NC(C(=O)OCCCCCn3cc(F)c(=O)[nH]c3=O)C(C)Cc3ccccc3)[C@H]3COC(=O)[C@H]23)OCO4)cc(OC)c1O` (stereo not given in full), in that order: 530 nM and 300 nM.
For `COc1cc([C@@H]2c3cc4c(cc3[C@@H](NC(Cc3ccccc3)C(=O)OCCCCn3cc(F)c(=O)[nH]c3=O)[C@H]3COC(=O)[C@H]23)OCO4)cc(OC)c1O` (stereo not given in full), in that order: 300 nM and 420 nM.
For `COc1cc([C@@H]2c3cc4c(cc3[C@@H](NC(CSC)C(=O)OCCCn3cc(F)c(=O)[nH]c3=O)[C@H]3COC(=O)[C@H]23)OCO4)cc(OC)c1O` (stereo not given in full), in that order: 290 nM and 990 nM.
`COc1cc([C@@H]2c3cc4c(cc3[C@@H](NC(CSC)C(=O)OCCCCn3cc(F)c(=O)[nH]c3=O)[C@H]3COC(=O)[C@H]23)OCO4)cc(OC)c1O` (stereo not given in full): the IC50 with A549 came to 1870 nM; with HL-60, 50 nM.
For `COc1cc([C@@H]2c3cc4c(cc3[C@@H](NC(Cc3ccccc3)C(=O)OCCCCCn3cc(F)c(=O)[nH]c3=O)[C@H]3COC(=O)[C@H]23)OCO4)cc(OC)c1O` (stereo not given in full) the same measures were < 10 nM and 40 nM.
For `COc1cc([C@@H]2c3cc4c(cc3[C@@H](NC(C(=O)OCCCCn3cc(F)c(=O)[nH]c3=O)C(C)Cc3ccccc3)[C@H]3COC(=O)[C@H]23)OCO4)cc(OC)c1O` (stereo not given in full), in that order: 740 nM and 530 nM.
For the compound `COc1cc([C@@H]2c3cc4c(cc3[C@@H](NC(Cc3ccccc3)C(=O)OCCCn3cc(F)c(=O)[nH]c3=O)[C@H]3COC(=O)[C@H]23)OCO4)cc(OC)c1O` (stereo not given in full), the IC50 in the assay on A549 is 480 nM; in the assay with HL-60, 310 nM.
As for `COc1cc([C@@H]2c3cc4c(cc3[C@@H](NC(C(=O)OCCCn3cc(F)c(=O)[nH]c3=O)C(C)Cc3ccccc3)[C@H]3COC(=O)[C@H]23)OCO4)cc(OC)c1O` (stereo not given in full), the 50% inhibitory concentration (IC50) in the assay on A549 was 180 nM; in the assay on HL-60, 240 nM.
For `O=c1[nH]cc(F)c(=O)[nH]1` [FLUOROURACIL], in that order: 50500 nM and 65300 nM.
